Reference: patent publication US4946779A, “Pseudo-aminosugars, their production and use” (Takeda Chemical Industries, Ltd., priority 1981, dated 1990)

Columns and labels:
[1] = biological target: maltase prepared from porcine intestinal mucosa; assay: maltase inhibitory activity, maltose as substrate; assay type: biochemical; conditions: substrate 0.05 M maltose, read-out: IC50 (M), concentration of 50% inhibition
Description: (§1) The inhibitory activities of the compounds of this invention against α-glucosidase (yeast, type I, produced by Sigma Chemical Co.,U.S.A.)as well as maltase and saccharase prepared from porcine intestinal mucosa (prepared in accordance with the procedure as described by B. Borgstroom and A. Dahlgvist in Acta Chem. Scand.; 12, 1997-2006, (1958)), when maltose and sucrose are used as a substrate, are determined by adding to 0.25 ml of a solution of an enzyme prepared by diluting suitably with 0.02 M phosphate buffer (pH 6.8) 0.5 ml of a solution of an inhibitory substance to be tested in the same buffer and 0.25 ml of 0.05 M maltose or 0.05 M sucrose as the substrate in the same buffer allowing the mixture to react at 37° C. for 10 minutes, then adding 3 ml of Glucose B-Test Reagent (a glucose oxidase reagent for measurement of glucose, produced by Wako Pure Chemical Co., Japan), further warming the mixture at 37° C. for 20 minutes and measuring the absorbance of the reaction solution at 505 nm.

Solubility in solvents = assay type: physicochemical
[2] = biological target: T1, saccharase prepared from porcine intestinal mucosa (Sus scrofa, UniProt P56729); assay: saccharase inhibitory activity, sucrose as substrate; assay type: biochemical; conditions: substrate 0.05 M sucrose, read-out: IC50 (M), concentration of 50% inhibition
T1 construct: sucrase is the C-terminal subunit cleaved from the SI precursor, paired with isomaltase
T1 sequence (P56729 with tags, fused parts or gaps): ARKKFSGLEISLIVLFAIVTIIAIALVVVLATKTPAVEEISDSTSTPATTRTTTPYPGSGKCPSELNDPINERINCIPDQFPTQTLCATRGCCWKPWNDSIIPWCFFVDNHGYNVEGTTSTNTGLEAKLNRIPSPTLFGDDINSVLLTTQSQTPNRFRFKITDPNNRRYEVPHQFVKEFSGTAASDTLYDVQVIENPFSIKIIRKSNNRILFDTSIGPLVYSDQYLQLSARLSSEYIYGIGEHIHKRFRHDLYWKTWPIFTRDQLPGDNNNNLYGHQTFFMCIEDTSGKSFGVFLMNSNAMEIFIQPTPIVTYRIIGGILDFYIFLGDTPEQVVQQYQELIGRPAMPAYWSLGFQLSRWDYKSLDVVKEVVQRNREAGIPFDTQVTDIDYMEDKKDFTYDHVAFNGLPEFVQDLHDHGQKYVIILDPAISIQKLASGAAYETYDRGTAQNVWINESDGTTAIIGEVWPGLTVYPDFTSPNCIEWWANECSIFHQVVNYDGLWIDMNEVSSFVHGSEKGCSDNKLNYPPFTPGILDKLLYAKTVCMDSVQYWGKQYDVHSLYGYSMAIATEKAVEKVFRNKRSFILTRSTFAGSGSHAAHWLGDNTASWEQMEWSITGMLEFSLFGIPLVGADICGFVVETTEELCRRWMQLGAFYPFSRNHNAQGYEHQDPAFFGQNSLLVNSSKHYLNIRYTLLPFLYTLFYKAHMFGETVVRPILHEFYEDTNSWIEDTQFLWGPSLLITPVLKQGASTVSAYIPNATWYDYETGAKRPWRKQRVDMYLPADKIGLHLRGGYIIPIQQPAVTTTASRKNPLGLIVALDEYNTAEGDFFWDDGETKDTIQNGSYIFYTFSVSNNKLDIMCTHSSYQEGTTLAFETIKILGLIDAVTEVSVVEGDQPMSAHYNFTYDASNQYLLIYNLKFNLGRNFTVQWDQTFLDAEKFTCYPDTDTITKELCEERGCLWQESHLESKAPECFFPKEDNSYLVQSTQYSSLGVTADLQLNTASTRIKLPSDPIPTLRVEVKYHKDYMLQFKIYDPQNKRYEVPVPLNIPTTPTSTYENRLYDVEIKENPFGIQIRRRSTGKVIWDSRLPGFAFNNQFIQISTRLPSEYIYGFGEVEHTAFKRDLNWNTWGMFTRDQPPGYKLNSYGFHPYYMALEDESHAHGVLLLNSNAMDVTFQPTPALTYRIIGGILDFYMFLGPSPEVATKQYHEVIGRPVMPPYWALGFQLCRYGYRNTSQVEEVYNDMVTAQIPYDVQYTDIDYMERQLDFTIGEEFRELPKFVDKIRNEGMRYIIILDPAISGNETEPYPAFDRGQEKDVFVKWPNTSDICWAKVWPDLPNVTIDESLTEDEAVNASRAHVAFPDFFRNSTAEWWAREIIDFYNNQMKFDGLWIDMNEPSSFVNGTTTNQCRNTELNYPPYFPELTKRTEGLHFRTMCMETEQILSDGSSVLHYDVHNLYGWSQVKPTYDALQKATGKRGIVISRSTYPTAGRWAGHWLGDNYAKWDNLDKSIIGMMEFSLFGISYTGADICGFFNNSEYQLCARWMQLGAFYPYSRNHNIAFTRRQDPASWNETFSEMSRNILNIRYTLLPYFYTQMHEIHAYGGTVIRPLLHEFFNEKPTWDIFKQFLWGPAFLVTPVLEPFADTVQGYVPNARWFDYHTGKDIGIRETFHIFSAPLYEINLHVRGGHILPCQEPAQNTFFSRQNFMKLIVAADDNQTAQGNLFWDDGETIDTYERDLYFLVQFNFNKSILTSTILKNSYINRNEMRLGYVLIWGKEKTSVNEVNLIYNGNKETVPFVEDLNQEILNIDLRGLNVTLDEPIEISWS
Description: as §1

rats = assay: Toxicity, LD50 in rats; assay type: in vivo
[3] = in ethanol, ethyl acetate, chloroform, acetone
[4] = in water, dimethylsulfoxide, methanol

Question: Which IC50 [1] does the source give for `N[C@H]1C[C@](O)(CO)C(O)C(O)C1O` (some centres unmarked) [epivaliolamine] here?
Answer: Its IC50 is 0.00014 M.

Question: And the Solubility (Solubility in solvents; [3])?
Answer: The Solubility was “Sparing soluble or insoluble”.

Question: And the Solubility (Solubility in solvents; [4])?
Answer: Its Solubility is “Soluble”.

Question: Which IC50 [1] does the source give for `N[C@H]1C[C@](O)(CO)[C@@H](O)[C@H](O)[C@H]1O` [valiolamine, 1L(1S)-(1(OH), 2,4,5/1(CH2 OH),3)-5-amino-1-hydroxymethyl-1,2,3,4-cyclohexanetetrol] here?
Answer: The IC50 was 2.2e-06 M.

Question: What about the IC50 [2] of the same compound?
Answer: The IC50 was 4.9e-08 M.

Question: And the Solubility (Solubility in solvents; [3])?
Answer: The Solubility was “Sparingly soluble or insoluble”.

Question: And the Solubility (Solubility in solvents; [4])?
Answer: Its Solubility is “Soluble”.

Question: Which LD50 (rats) does the source give for `NC1CC(O)(CO)C(O)C(O)C1O` (centres unmarked) [compound [I], 5-amino-1-hydroxymethyl-1,2,3,4-cyclohexanetetrol] here?
Answer: Its LD50 is ≥ 500 mg.
